Reference: patent US20060276464A1, “Diarylsulfone sulfonamides and use thereof” (Wyeth, priority 2005, published 2006)
Like-named read-outs stand apart in the source and are kept apart here.

Target: T1, SFRP-1 (Homo sapiens, UniProt Q8N474)
T1 sequence (Q8N474 32-314): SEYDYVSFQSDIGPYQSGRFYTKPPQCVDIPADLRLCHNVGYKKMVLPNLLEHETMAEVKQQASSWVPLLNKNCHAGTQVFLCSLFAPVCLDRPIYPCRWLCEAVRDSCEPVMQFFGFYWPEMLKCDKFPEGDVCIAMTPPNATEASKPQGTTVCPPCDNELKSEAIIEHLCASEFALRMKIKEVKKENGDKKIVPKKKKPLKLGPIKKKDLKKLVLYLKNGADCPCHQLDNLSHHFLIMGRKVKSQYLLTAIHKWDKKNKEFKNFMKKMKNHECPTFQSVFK
Assay: Cell-based assay for in vitro measurement of SFRP-1/SARP2 antagonist activity (U2OS cells co-transfected with 16x TCF-tk-Luciferase reporter, Wnt and hSFRP-1);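 note: U2OS cells co-transfected with a TCF-tk luciferase reporter, a Wnt vector, hSFRP-1 or empty vector and CMV-βgal, luciferase luminescence read in cell lysates alongside βgal activity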
Conditions: for fold induction at 15 µM / fold induction at 10 µM / fold induction at 20 µM / fold induction at 30 µM: U2OS; for fold induction at 10 µM: read-out: Fold Induction with SFRP-1, U2OS cells, single dose 10 μM, luciferase reporter, fold induction over SFRP-1 control

[1] = read-out: Fold Induction with SFRP-1, Conc 15 μM, with SFRP-1, fold induction over SFRP-1 control, single dose
[2] = read-out: Fold Induction without SFRP-1, Conc 15 μM, without SFRP-1, single dose
[3] = read-out: Fold Induction with SFRP-1, Conc 15 μM, single dose, luciferase reporter, fold induction over SFRP-1 control, cells with SFRP-1
[4] = read-out: Fold Induction without SFRP-1, Conc 15 μM, single dose, luciferase reporter, cells without SFRP-1 (specificity control)
[5] = read-out: Fold Induction with SFRP-1, Conc 20 μM, with SFRP-1, fold induction over SFRP-1 control, single dose
[6] = read-out: Fold Induction without SFRP-1, Conc 20 μM, without SFRP-1, single dose
[7] = read-out: Fold Induction with SFRP-1, Conc 30 μM, with SFRP-1, fold induction over SFRP-1 control, single dose
[8] = read-out: Fold Induction without SFRP-1, Conc 30 μM, without SFRP-1, single dose

CCc1ccccc1S(=O)(=O)c1ccc(C)c(S(=O)(=O)NCCc2ccccn2)c1 [Example 431, 5-[(2-ethylphenyl)sulfonyl]-2-methyl-N-(2-pyridin-2-ylethyl)benzenesulfonamide]
fold induction at 15 µM [1]: 1.7
fold induction at 15 µM [2]: 0.8

CC(C)c1ccc(S(=O)(=O)c2ccc(F)cc2)cc1S(=O)(=O)NCCN1CCCCC1 [Example 527, 5-[(4-fluorophenyl)sulfonyl]-2-isopropyl-N-(2-piperidin-1-ylethyl)benzenesulfonamide]
fold induction at 15 µM [3]: 2.3
fold induction at 15 µM [4]: 1.2

Cc1ccc(S(=O)(=O)c2ccccc2)cc1S(=O)(=O)NCCC(=O)N1CCCC1 [Example 665, 2-methyl-N-(3-oxo-3-pyrrolidin-1-ylpropyl)-5-(phenylsulfonyl)benzenesulfonamide]
fold induction at 10 µM: 1.3

C[C@@H](CNS(=O)(=O)c1cccc(S(=O)(=O)c2ccccc2)c1)c1ccccc1 [Example 260, N-[(2R)-2-phenylpropyl]-3-(phenylsulfonyl)benzenesulfonamide]
fold induction at 20 µM [5]: 1.2
fold induction at 20 µM [6]: 1

Cc1ccc(S(=O)(=O)c2ccc(F)cc2)cc1S(=O)(=O)NCCCN1CCOCC1 [Example 163, 5-[(4-fluorophenyl)sulfonyl]-2-methyl-N-(3-morpholin-4-ylpropyl)benzenesulfonamide]
fold induction at 15 µM [1]: 2
fold induction at 15 µM [2]: 0.9

O=S(=O)(NC1CCN(C(=S)c2ccc(C(F)(F)F)cc2)CC1)c1cc(S(=O)(=O)c2ccccc2)ccc1C(F)(F)F [Example 724, 5-(phenylsulfonyl)-2-(trifluoromethyl)-N-(1-{[4-(trifluoromethyl)phenyl]carbonothioyl}piperidin-4-yl)benzenesulfonamide]
fold induction at 10 µM: 1.7

COC(=O)CCNS(=O)(=O)c1cc(S(=O)(=O)c2ccccc2)ccc1OC [Example 233, methyl N-{[2-methoxy-5-(phenylsulfonyl)phenyl]sulfonyl}-beta-alaninate]
fold induction at 15 µM [1]: 1.5
fold induction at 15 µM [2]: 1

Cc1ccc(S(=O)(=O)c2ccccc2)cc1S(=O)(=O)NCCN1CCCCC1 [Example 209, 2-methyl-5-(phenylsulfonyl)-N-(2-piperidin-1-ylethyl)benzenesulfonamide]
fold induction at 15 µM [1]: 2.2
fold induction at 15 µM [2]: 1.3

Cc1ccc(S(=O)(=O)c2cccc(O)c2)cc1S(=O)(=O)NCCc1ccccn1 [Example 416, 5-[(3-hydroxyphenyl)sulfonyl]-2-methyl-N-(2-pyridin-2-ylethyl)benzenesulfonamide]
fold induction at 15 µM [1]: 1.9
fold induction at 15 µM [2]: 0.9

Cc1ccc(S(=O)(=O)c2ccccc2)cc1S(=O)(=O)NC1CCN(C(=O)C2CC2)CC1 [Example 475, N-[1-(cyclopropylcarbonyl)piperidin-4-yl]-2-methyl-5-(phenylsulfonyl)benzenesulfonamide]
fold induction at 15 µM [1]: 1.9
fold induction at 15 µM [2]: 1.1

COCC(=O)N1CCC(NS(=O)(=O)c2cc(S(=O)(=O)c3ccccc3)ccc2C)CC1 [Example 469, N-[1-(methoxyacetyl)piperidin-4-yl]-2-methyl-5-(phenylsulfonyl)benzenesulfonamide]
fold induction at 15 µM [1]: 3.6
fold induction at 15 µM [2]: 1.1

COc1cccc(S(=O)(=O)c2ccc(C)c(S(=O)(=O)NCCCn3ccnc3)c2)c1 [Example 323, N-[3-(1H-imidazol-1-yl)propyl]-5-[(3-methoxyphenyl)sulfonyl]-2-methylbenzenesulfonamide]
fold induction at 15 µM [1]: 2.6
fold induction at 15 µM [2]: 0.9

Cc1ccc(S(=O)(=O)c2ccc(C)c(S(=O)(=O)NCCc3ccccc3Cl)c2)cc1 [Example 117, N-[2-(2-chlorophenyl)ethyl]-2-methyl-5-[(4-methylphenyl)sulfonyl]benzenesulfonamide]
fold induction at 30 µM [7]: 1
fold induction at 30 µM [8]: 0.5

O=S(=O)(NCCCn1ccnc1)c1cccc(S(=O)(=O)c2ccccc2)c1 [Example 199, N-[3-(1H-imidazol-1-yl)propyl]-3-(phenylsulfonyl)benzenesulfonamide]
fold induction at 30 µM [7]: 1.1
fold induction at 30 µM [8]: 1

CCc1ccc(S(=O)(=O)c2ccccc2)cc1S(=O)(=O)NC[C@H](C)c1ccccc1 [Example 268, 2-ethyl-N-[(2R)-2-phenylpropyl]-5-(phenylsulfonyl)benzenesulfonamide]
fold induction at 15 µM [1]: 3.6
fold induction at 15 µM [2]: 1.1

Cc1ccc(S(=O)(=O)c2ccc(F)cc2)cc1S(=O)(=O)NCCn1ccnc1 [Example 307, 5-[(4-fluorophenyl)sulfonyl]-N-[2-(1H-imidazol-1-yl)ethyl]-2-methylbenzenesulfonamide]
fold induction at 15 µM [1]: 2.5
fold induction at 15 µM [2]: 0.9

Cc1ccc(S(=O)(=O)c2ccccc2)cc1S(=O)(=O)NCC(F)(F)F [Example 401, 2-methyl-5-(phenylsulfonyl)-N-(2,2,2-trifluoroethyl)benzenesulfonamide]
fold induction at 15 µM [1]: 1.6
fold induction at 15 µM [2]: 1.1

Cc1ccc(S(=O)(=O)c2ccccc2)cc1S(=O)(=O)N[C@H]1CCCC[C@@H]1O (relative stereo) [Example 412, N-[(1S*,2S*)-2-hydroxycyclohexyl]-2-methyl-5-(phenylsulfonyl)benzenesulfonamide]
fold induction at 15 µM [1]: 1.9
fold induction at 15 µM [2]: 1.5

Cc1ccc(S(=O)(=O)c2ccc(C#N)cc2)cc1S(=O)(=O)NCCc1ccccn1 [Example 428, 5-[(4-cyanophenyl)sulfonyl]-2-methyl-N-(2-pyridin-2-ylethyl)benzenesulfonamide]
fold induction at 15 µM [1]: 1.3
fold induction at 15 µM [2]: 0.8

CCN(CC)CCCNS(=O)(=O)c1cc(S(=O)(=O)c2ccccc2)ccc1C [Example 218, N-[3-(diethylamino)propyl]-2-methyl-5-(phenylsulfonyl)benzenesulfonamide]
fold induction at 15 µM [1]: 2.2
fold induction at 15 µM [2]: 1.2

COc1ccccc1CCNS(=O)(=O)c1cc(S(=O)(=O)c2ccc(C)cc2)ccc1C [Example 118, N-[2-(2-methoxyphenyl)ethyl]-2-methyl-5-[(4-methylphenyl)sulfonyl]benzenesulfonamide]
fold induction at 30 µM [7]: 1.3
fold induction at 30 µM [8]: 0.5

N#CCNS(=O)(=O)c1cc(S(=O)(=O)c2ccccc2)ccc1Cl [Example 663, 2-chloro-N-(cyanomethyl)-5-(phenylsulfonyl)benzenesulfonamide]
fold induction at 10 µM: 1

COCCNS(=O)(=O)c1cc(S(=O)(=O)c2ccccc2)ccc1OC [Example 240, 2-methoxy-N-(2-methoxyethyl)-5-(phenylsulfonyl)benzenesulfonamide]
fold induction at 15 µM [1]: 1.4
fold induction at 15 µM [2]: 0.9

Cc1cc(C)c(S(=O)(=O)c2ccccc2)cc1S(=O)(=O)NC(C)C(O)c1ccccc1 (stereo not drawn) [Example 393, N-[(trans)-2-hydroxy-1-methyl-2-phenylethyl]-2,4-dimethyl-5-(phenylsulfonyl)benzenesulfonamide]
Fold Induction with SFRP-1 (Conc 7.5 μM, with SFRP-1, fold induction over SFRP-1 control, single dose): 1.2 fold
Fold Induction without SFRP-1 (Conc 7.5 μM, without SFRP-1, single dose): 1 fold

CN1CCN(CCCNS(=O)(=O)c2cccc(S(=O)(=O)c3ccccc3)c2)CC1 [Example 201, N-[3-(4-methylpiperazin-1-yl)propyl]-3-(phenylsulfonyl)benzenesulfonamide]
fold induction at 30 µM [7]: 1.1
fold induction at 30 µM [8]: 1.2

COc1ccc(S(=O)(=O)c2ccccc2)cc1S(=O)(=O)NCCCN1CCCC1 [Example 243, 2-methoxy-5-(phenylsulfonyl)-N-(3-pyrrolidin-1-ylpropyl)benzenesulfonamide]
fold induction at 15 µM [1]: 2.4
fold induction at 15 µM [2]: 1.9

CC(C)(CO)NS(=O)(=O)c1cc(S(=O)(=O)c2ccccc2)ccc1Cl [Example 655, 2-chloro-N-(2-hydroxy-1,1-dimethylethyl)-5-(phenylsulfonyl)benzenesulfonamide]
fold induction at 10 µM: 1.1

C=CCN(CCc1ccccc1F)S(=O)(=O)c1cc(S(=O)(=O)c2ccc(C)cc2)ccc1C [Example 276, N-allyl-N-[2-(2-fluorophenyl)ethyl]-2-methyl-5-[(4-methylphenyl)sulfonyl]benzene sulfonamide]
fold induction at 15 µM [1]: 0.8
fold induction at 15 µM [2]: 1

Cc1ccc(S(=O)(=O)c2ccccc2)cc1S(=O)(=O)NC1Cc2ccccc2C1 [Example 246, N-2,3-dihydro-1H-inden-2-yl-2-methyl-5-(phenylsulfonyl)benzenesulfonamide]
fold induction at 20 µM [5]: 2.2
fold induction at 20 µM [6]: 0.8

CC(C)c1ccc(S(=O)(=O)c2ccc(F)cc2)cc1S(=O)(=O)NC1CCC1 [Example 522, N-cyclobutyl-5-[(4-fluorophenyl)sulfonyl]-2-isopropylbenzenesulfonamide]
fold induction at 15 µM [3]: 1.4
fold induction at 15 µM [4]: 0.9

Cc1ccc(S(=O)(=O)c2ccc(F)cc2)cc1S(=O)(=O)NC1CCOCC1 [Example 308, 5-[(4-fluorophenyl)sulfonyl]-2-methyl-N-tetrahydro-2H-pyran-4-ylbenzenesulfonamide]
fold induction at 15 µM [1]: 2.3
fold induction at 15 µM [2]: 0.9
